The structures appear in SMILES notation. Entries after “also recorded” stand apart in the source; their conditions may differ. Structures can show the parent of a compound that is named as a salt.

A short description of data set [1]: Comparison of water solubility of different forms of samples.
For a further data set, the system named is Male SD rats. Put plainly: Comparison of diuretic effects (urine output of saline-loaded rats). In kind it is in vivo, rat. The settings on record: 30 mL/kg normal saline intragastrically, drug 10 mg/kg iv, urine collected for 4 h. The procedure:
Comparison of Diuretic Effects:
Male SD rats (body weight 180±20 g) were divided into seven groups randomly, three rats a group, and each rat was administered intragastrically 30 mL/kg normal saline. After intragastric administration of normal saline, except the blank control group, each group was given one drug (10 mg/kg, iv, 1 mg/mL, formulation prescription: 0.5% methylcellulose), and the urination was collected for 4 hours.

The conditions of data set [2]: cited from earlier work.
The conditions of data set [3]: cited from earlier work. This is another data set of the same source.

Regarding `Cc1cccc(Nc2ccncc2S(=O)(=O)N(COP(=O)(O)O)C(=O)NC(C)C)c1` [Compound of formula I, N-hydroxymethyl-torsemide phosphate], in data set [1], the “Conclusion (water solubility class)” value was “soluble”. In the data set on Male SD rats, the “Urine output (mL/kg, 4 h)” value was found to be 105.4 mL/kg.

For `Cc1cccc(Nc2ccncc2S(=O)(=O)N(COP(=O)([O-])[O-])C(=O)NC(C)C)c1.[Na+].[Na+]` [Compound of formula Ia, disodium N-hydroxymethyl-torsemide phosphate], the “Urine output (mL/kg, 4 h)” value in the data set with Male SD rats turned out to be 121.6 mL/kg.

Consider `Cc1cccc(Nc2ccncc2S(=O)(=O)N(COP(=O)([O-])[O-])C(=O)NC(C)C)c1.[K+].[K+]` [Compound of formula Ib, dipotassium N-hydroxymethyl-torsemide phosphate], for which the “Urine output (mL/kg, 4 h)” value in the data set on Male SD rats came to 116.8 mL/kg.

As to `Cc1cccc(Nc2ccncc2S(=O)(=O)N(COP(=O)(O)O)C(=O)NC(C)C)c1` [Compound of formula Ic, N-hydroxymethyl-torsemide phosphate triethylammonium salt], the “Conclusion (water solubility class)” value in data set [1] is “easily soluble”. Besides, the “Urine output (mL/kg, 4 h)” value in the data set with Male SD rats came to 103.4 mL/kg.

`Cc1cccc(Nc2ccncc2S(=O)(=O)N(COP(=O)(O)O)C(=O)NC(C)C)c1` [Compound of formula Id, N-hydroxymethyl-torsemide phosphate tri-n-butylammonium salt]: the “Conclusion (water solubility class)” value in data set [1] was “easily soluble”. The “Urine output (mL/kg, 4 h)” value in the data set with Male SD rats came to 105.6 mL/kg.

With `Cc1cccc(Nc2ccncc2S(=O)(=O)NC(=O)NC(C)C)c1` [Torsemide, 1-[4-(3-methylphenyl)aminopyridin-3-yl]sulfonyl-3-isopropylurea], the “solubility in 0.1 mol/L sodium hydroxide solution” value in data set [2] (0.1 mol/L sodium hydroxide solution) is on record as “slightly soluble”. The solubility in water entry in data set [2] (water) is “almost insoluble; also recorded: very slightly soluble”. Moreover, the pKa value in data set [3] is recorded as 6.44. For the same molecule, the “Urine output (mL/kg, 4 h)” value with Male SD rats worked out at 100.3 mL/kg.

The record behind these values is patent US20220009951A1, “TORSEMIDE PHOSPHATE PRODRUG, PREPARATION METHOD AND COMPOSITION THEREOF” (Shanghai Xunhe Pharmaceutical Technology Co. Ltd., priority 2019, published 2022).
